Reference: PMC6483395 (Synlett : accounts and rapid communications in synthetic …, 2017)

Target: T1, NapH1 (Streptomyces sp. CNQ-525, UniProt A7KH27)
T1 sequence (A7KH27 42-527): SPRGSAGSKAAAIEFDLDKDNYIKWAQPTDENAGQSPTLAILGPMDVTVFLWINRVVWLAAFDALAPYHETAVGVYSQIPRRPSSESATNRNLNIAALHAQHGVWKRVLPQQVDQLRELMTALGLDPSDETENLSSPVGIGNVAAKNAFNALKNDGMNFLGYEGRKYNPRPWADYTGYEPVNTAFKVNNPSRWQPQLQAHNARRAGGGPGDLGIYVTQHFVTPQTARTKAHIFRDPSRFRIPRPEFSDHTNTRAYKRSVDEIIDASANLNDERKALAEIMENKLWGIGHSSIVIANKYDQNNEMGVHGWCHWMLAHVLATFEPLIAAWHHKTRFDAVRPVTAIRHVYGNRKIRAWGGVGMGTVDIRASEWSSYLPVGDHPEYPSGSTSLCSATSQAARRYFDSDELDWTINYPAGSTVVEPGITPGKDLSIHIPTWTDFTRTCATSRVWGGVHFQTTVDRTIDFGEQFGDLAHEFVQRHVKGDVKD
Assay: crystal structure
Format: binding
Details: homodimer; structures with and without vanadate

[O]=[V]([OH])([OH])[OH] [vanadate]
crystal structure: we solved the three-dimensional structures of the homodimeric NapH1 with and without vanadate
